SMILES strings stand for the structures.

In the experiment the target is CB1 receptors (Rattus norvegicus, UniProt P20272). Put plainly: Inhibition of [3H]SR141716 binding in homogenates of rat cerebellum. Particulars: [3H]SR141716 radioligand.
CB1 receptors, sequence (P20272 whole entry): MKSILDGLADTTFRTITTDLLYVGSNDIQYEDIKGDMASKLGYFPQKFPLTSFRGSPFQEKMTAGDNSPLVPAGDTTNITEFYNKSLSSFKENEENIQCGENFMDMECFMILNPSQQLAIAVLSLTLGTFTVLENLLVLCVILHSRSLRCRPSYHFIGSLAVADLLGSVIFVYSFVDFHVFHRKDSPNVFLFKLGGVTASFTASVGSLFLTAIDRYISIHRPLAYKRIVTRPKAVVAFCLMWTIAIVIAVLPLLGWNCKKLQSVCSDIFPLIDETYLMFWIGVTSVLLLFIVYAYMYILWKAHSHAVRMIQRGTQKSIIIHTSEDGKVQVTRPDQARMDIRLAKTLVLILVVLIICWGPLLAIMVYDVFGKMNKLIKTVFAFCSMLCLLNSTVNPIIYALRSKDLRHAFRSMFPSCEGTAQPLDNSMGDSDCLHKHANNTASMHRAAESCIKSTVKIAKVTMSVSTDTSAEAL
Consider `Clc1ccc(-c2cnnn2-c2ccc(Cl)cc2)cc1` [Compound 7a], for which the “binding affinity at CB1 receptors (in words)” value (from here on “binding affinity”) is reported as “low affinity”.

For `O=C(OCc1ccccc1)c1nnn(-c2ccc(Cl)cc2Cl)c1-c1ccc(Cl)cc1` [Compound 15], the “binding affinity” value is reported as “somewhat diminished”.

Consider `O=C(NN1CCCCC1)c1nnn(-c2ccc(Cl)cc2)c1-c1ccc(Cl)cc1` [Compound 9], for which the “binding affinity” value is recorded as “low affinity”.

Turning to `Clc1ccc(-c2cnnn2-c2ccc(Cl)cc2Cl)cc1` [Compound 7b], the “binding affinity” value is reported as “low affinity”.

(Values after PMC2631625 (Bioorganic & medicinal chemistry letters, 2008).)
